The record followed here is paper PMC9312917 (2022).

Broadly, the Kd is the equilibrium constant for the complex coming apart. Low values mean higher affinity, high ones lower affinity.

SMILES strings stand for the structures.

Common to all, as to assay: graphene oxide fluorescence assay
What all share (conditions): 100 mM NaCl, 5 mM KCl, 2 mM MgCl2, 1 mM CaCl2; 20 mM Tris-HCl pH 7.5, room temperature; aptamer 0-400 nM titrated at fixed 1 µg/mL SQX

In assay [1] the test system is SBA24-1 (DNA, aptamer) GCGTGAGC
Assay [2] concerns SBA28-1 (DNA, aptamer) CCCTAGGGG
The test system of assay [3] is SBA40-1 (DNA, aptamer) GGCTGACTGCT

For `Nc1ccc(S(=O)(=O)Nc2cnc3ccccc3n2)cc1`, the Kd is 74.19 nM in assay [1], 27.36 nM in assay [2] and 36.73 nM in assay [3].
